Experimental data from US12257287B2, “Glucagon-derived peptide and use thereof” (Tianjin Institute of Pharmaceutical Research Co., Ltd., priority 2018, dated 2025).
≈ marks a conversion by molar mass, not a printed value. Numbered stars: 1 amine (or outer) side, 2 acyl side, 3 side chain; on linkers, the order of the positions; unused ones are H or OH. Square brackets hold non-standard residues; d marks the D form. Side chains are listed from the residue outwards. Peptide text beside a SMILES is read from it. * marks the point of attachment. C18 diacid = O=C(O)CCCCCCCCCCCCCCCCC(=O)*; γGlu = O=C(O)[C@H](CCC(=O)[*:2])N[*:1]; AEEA = NCCOCCOCC(=O)O; Aib = CC(C)(N)C(=O)O

Experiments:
GC receptor = molecular target: T1, GC receptor (Homo sapiens, UniProt P47871); test: GC receptor mediated cAMP production in vitro (HEK293 cells transfected with GC receptor); type: cell-based; details: 20 min at 37° C., read-out: GCGR (nM EC50)
T1 construct: expressed in transfected cells; host or cells: HEK293 cells
Text: The medium was removed, the cells were lysed, and cAMP values were detected referring to the detection method described for the assay kit.

[1] = Short-term administration: food intake and body weight in DIO mice; type: in vivo; details: 30 nmol/kg once every 24 h, twice, − decrease; for Rate of change in food intake (%): at 48 hours vs day before administration; for Body weight change: at 48 hours
Procedure: Method: diet-induced obese mice (DIO) with an average body weight of 52.5 g were divided into model control and test groups, 5 mice in each group. The test samples were dissolved in 10 mM PBS of pH7.4, injected once every 24 h at a dose of 30 nmol/kg, and administered twice. The model group was injected with solvent. Changes in food intake and body weight at 48 hours were measured, and the change rates were calculated compared to the day before administration.

physchem = type: physicochemical
[2] = Accelerated chemical stability in injection solvent system (HPLC-UV); type: physicochemical; details: 14 days, phosphate buffer pH 7.3 with Tween 80 and phenol, main peak area vs day 0
Procedure: The chemical stability of the compounds of the present invention in injection solution systems was evaluated by an accelerated stability test. Methods: an appropriate amount of compound of Example 1 was weighed, and dissolved in 10 mM pH8.5 sodium hydrogen phosphate buffer. The final pH value of the solution was adjusted to 7.3 with 0.1 N hydrochloric acid, and proper amounts of Tween 80 and phenol were added. The mixture was placed at 10° C. and 37° C. for 14 days, and detected by HPLC-UV. The main peak area was obtained by peak area normalization method, and the changes compared with day 0 were investigated. The HPLC detection method was the same as that in Example 6, and the mobile phase gradient was appropriately adjusted according to the situation of chromatographic peak separation.

[3] = pH 7.5, Solubility, pH 7.5, 10 mM phosphate buffer
[4] = pH 7.5, Solubility, pH 7.5, 20 mM phosphate buffer
[5] = pH 8, Solubility, pH 8.0, 10 mM phosphate buffer
[6] = pH 8, Solubility, pH 8.0, 20 mM phosphate buffer
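Throughout, for Solubility, pH 7.5, 20 mM phosphate buffer: compound added at 2 mg per mL of phosphate buffer, with the dissolved amount determined in the supernatant.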
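Throughout, for Solubility: compound added at 2 mg per mL of phosphate buffer, with the dissolved amount determined in the supernatant.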

T1 sequence (P47871 26-477): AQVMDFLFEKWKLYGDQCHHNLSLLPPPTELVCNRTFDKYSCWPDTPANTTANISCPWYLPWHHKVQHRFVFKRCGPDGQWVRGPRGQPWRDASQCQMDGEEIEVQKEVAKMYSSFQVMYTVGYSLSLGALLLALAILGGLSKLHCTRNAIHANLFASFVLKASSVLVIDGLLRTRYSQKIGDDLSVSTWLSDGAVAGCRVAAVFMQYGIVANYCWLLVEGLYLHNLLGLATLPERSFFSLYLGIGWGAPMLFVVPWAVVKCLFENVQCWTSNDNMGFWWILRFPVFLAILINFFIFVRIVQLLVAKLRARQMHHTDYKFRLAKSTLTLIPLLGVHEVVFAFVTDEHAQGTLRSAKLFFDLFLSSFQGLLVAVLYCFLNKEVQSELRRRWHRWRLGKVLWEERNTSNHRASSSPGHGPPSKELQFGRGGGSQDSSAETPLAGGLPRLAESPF

For `CC[C@H](C)[C@H](NC(=O)[C@H](Cc1ccccc1)NC(=O)[C@H](CCC(=O)O)NC(=O)[C@H](CCCCNC(=O)COCCOCCNC(=O)COCCOCCNC(=O)CC[C@H](NC(=O)CCCCCCCCCCCCCCCCC(=O)O)C(=O)O)NC(=O)[C@H](C)NC(=O)[C@H](C)NC(=O)[C@H](CCCNC(=N)N)NC(=O)[C@H](CCC(=O)O)NC(=O)[C@H](CCC(=O)O)NC(=O)[C@H](CC(C)C)NC(=O)[C@H](Cc1ccc(O)cc1)NC(=O)[C@H](CCCCN)NC(=O)[C@H](CO)NC(=O)[C@H](Cc1ccc(O)cc1)NC(=O)[C@H](CC(=O)O)NC(=O)[C@H](CO)NC(=O)[C@@H](NC(=O)[C@H](Cc1ccccc1)NC(=O)[C@@H](NC(=O)CNC(=O)[C@H](CCC(N)=O)NC(=O)C(C)(C)NC(=O)[C@@H](N)Cc1c[nH]cn1)[C@@H](C)O)[C@@H](C)O)C(=O)N[C@@H](C)C(=O)N[C@@H](Cc1c[nH]c2ccccc12)C(=O)N[C@@H](CC(C)C)C(=O)N[C@@H](CCC(=O)O)C(=O)N[C@@H](C)C(=O)NCC(=O)NCC(=O)N1CCC[C@H]1C(=O)N[C@@H](CO)C(=O)N[C@@H](CO)C(=O)NCC(N)=O` [Compound 28] (H-H[Aib]QGTFTSDYSKYLEERAAK([AEEA-AEEA-γGlu-C18 diacid])EFIAWLEAGGPSSG-NH2; N-terminus assumed), the EC50 (GC receptor) was 0.026 nM, the “Rate of change in food intake (%)” value [1] was −49% and the “Body weight change” value [1] was -1.3 g.

In the case of `CC[C@H](C)[C@H](NC(=O)[C@H](Cc1ccccc1)NC(=O)[C@H](CCC(=O)O)NC(=O)[C@H](CCCCN)NC(=O)[C@H](C)NC(=O)[C@H](C)NC(=O)[C@H](CCCNC(=N)N)NC(=O)[C@H](CCC(=O)O)NC(=O)[C@H](CC(=O)O)NC(=O)[C@H](CC(C)C)NC(=O)[C@H](Cc1ccc(O)cc1)NC(=O)[C@H](CCCCN)NC(=O)[C@H](CO)NC(=O)[C@H](CCCCNC(=O)COCCOCCNC(=O)COCCOCCNC(=O)CC[C@H](NC(=O)CCCCCCCCCCCCCCCCC(=O)O)C(=O)O)NC(=O)[C@H](CC(=O)O)NC(=O)[C@H](CO)NC(=O)[C@@H](NC(=O)[C@H](Cc1ccccc1)NC(=O)[C@@H](NC(=O)CNC(=O)[C@H](CCC(N)=O)NC(=O)[C@H](CO)NC(=O)[C@@H](N)Cc1c[nH]cn1)[C@@H](C)O)[C@@H](C)O)C(=O)N[C@@H](C)C(=O)N[C@@H](Cc1c[nH]c2ccccc12)C(=O)N[C@@H](CC(C)C)C(=O)N[C@@H](CCC(=O)O)C(=O)N[C@@H](C)C(=O)NCC(=O)NCC(=O)N1CCC[C@H]1C(=O)N[C@@H](CO)C(=O)N[C@@H](CO)C(=O)NCC(N)=O` [Compound 36] (H-HSQGTFTSDK([AEEA-AEEA-γGlu-C18 diacid])SKYLDERAAKEFIAWLEAGGPSSG-NH2; N-terminus assumed), the EC50 (GC receptor) is reported as 0.069 nM, the “Rate of change in food intake (%)” value [1] is reported as −46% and the “Body weight change” value [1] is reported as -1.7 g.

With `CC(C)C[C@H](NC(=O)[C@H](Cc1c[nH]c2ccccc12)NC(=O)[C@H](C)NC(=O)[C@@H](NC(=O)[C@H](Cc1ccccc1)NC(=O)[C@H](CCC(=O)O)NC(=O)[C@H](CCCCN)NC(=O)[C@H](C)NC(=O)[C@H](C)NC(=O)[C@H](CCCNC(=N)N)NC(=O)[C@H](CCC(=O)O)NC(=O)[C@H](CCC(=O)O)NC(=O)[C@H](CC(C)C)NC(=O)[C@H](Cc1ccc(O)cc1)NC(=O)[C@H](CCCCN)NC(=O)[C@H](CO)NC(=O)[C@H](CCCCNC(=O)COCCOCCNC(=O)COCCOCCNC(=O)CC[C@H](NC(=O)CCCCCCCCCCCCCCCCC(=O)O)C(=O)O)NC(=O)[C@H](CC(=O)O)NC(=O)[C@H](CO)NC(=O)[C@@H](NC(=O)[C@H](Cc1ccccc1)NC(=O)[C@@H](NC(=O)CNC(=O)[C@H](CCC(N)=O)NC(=O)C(C)(C)NC(=O)[C@@H](N)Cc1c[nH]cn1)[C@@H](C)O)[C@@H](C)O)C(C)C)C(=O)N[C@@H](CCC(=O)O)C(=O)N[C@@H](C)C(=O)NCC(=O)NCC(=O)N1CCC[C@H]1C(=O)N[C@@H](CO)C(=O)N[C@@H](CO)C(=O)NCC(N)=O` [Compound 22] (H-H[Aib]QGTFTSDK([AEEA-AEEA-γGlu-C18 diacid])SKYLEERAAKEFVAWLEAGGPSSG-NH2; N-terminus assumed) the EC50 (GC receptor) was 0.018 nM, the “Rate of change in food intake (%)” value [1] was −62% and the “Body weight change” value [1] was -2.6 g. The solubility (physchem; [3]) was > 2000 µg/mL, the solubility (physchem; [4]) was > 2000 µg/mL and the “Change in purity % (10° C.)” value ([2]; 10° C.) was −2.0%. The “Change in purity % (37° C.)” value ([2]; 37° C.) was −5.7%.

Work on `CCCCCCCCCCCCCCCC(=O)N[C@@H](CCC(=O)N[C@@H](CCC(=O)NCCCC[C@H](NC(=O)[C@H](CC(=O)O)NC(=O)[C@H](CO)NC(=O)[C@@H](NC(=O)[C@H](Cc1ccccc1)NC(=O)[C@@H](NC(=O)CNC(=O)[C@H](CCC(N)=O)NC(=O)C(C)(C)NC(=O)[C@@H](N)Cc1c[nH]cn1)[C@@H](C)O)[C@@H](C)O)C(=O)N[C@@H](CO)C(=O)N[C@@H](CCCCN)C(=O)N[C@@H](Cc1ccc(O)cc1)C(=O)N[C@@H](CC(C)C)C(=O)N[C@@H](CCC(=O)O)C(=O)N[C@@H](CCC(=O)O)C(=O)N[C@@H](CCCNC(=N)N)C(=O)N[C@@H](C)C(=O)N[C@@H](C)C(=O)N[C@@H](CCCCN)C(=O)N[C@@H](CCC(=O)O)C(=O)N[C@@H](Cc1ccccc1)C(=O)N[C@H](C(=O)N[C@@H](CCC(=O)O)C(=O)N[C@@H](Cc1c[nH]c2ccccc12)C(=O)N[C@@H](CC(C)C)C(=O)N[C@@H](CC(C)C)C(=O)N[C@@H](CCC(=O)O)C(=O)N[C@@H](C)C(=O)NCC(=O)NCC(=O)N1CCC[C@H]1C(=O)N[C@@H](CO)C(=O)N[C@@H](CO)C(=O)NCC(N)=O)C(C)C)C(=O)O)C(=O)O` [Compound 25] (HELM PEPTIDE1{H.[Aib].Q.G.T.F.T.S.D.K.S.K.Y.L.E.E.R.A.A.K.E.F.V.E.W.L.L.E.A.G.G.P.S.S.G.[am]}|PEPTIDE2{[CCCCCCCCCCCCCCCC(=O)[*:2]].[gGlu].[gGlu]}$PEPTIDE1,PEPTIDE2,10:R3-3:R2$$$V2.0; N-terminus assumed) yielded an EC50 (GC receptor) of 0.278 nM, a solubility (physchem; [3]) of 300 µg/mL (≈ 69.2 µM) and a solubility (physchem; [4]) of 100 µg/mL (≈ 23.1 µM). For the same compound, the solubility (physchem; [5]) was 500 µg/mL (≈ 115 µM) and the solubility (physchem; [6]) was 200 µg/mL (≈ 46.1 µM).

In the case of `CCCCCCCCCCCCCCCC(=O)N[C@@H](CCC(=O)N[C@@H](CCC(=O)NCCCC[C@H](NC(=O)[C@H](C)NC(=O)[C@H](CCCNC(=N)N)NC(=O)[C@H](CCCCN)NC(=O)[C@H](CCC(=O)O)NC(=O)[C@H](CCC(=O)O)NC(=O)[C@H](CC(C)C)NC(=O)[C@H](Cc1ccc(O)cc1)NC(=O)[C@H](CCCCN)NC(=O)[C@H](CO)NC(=O)[C@H](Cc1ccc(O)cc1)NC(=O)[C@H](CC(=O)O)NC(=O)[C@H](CO)NC(=O)[C@@H](NC(=O)[C@H](Cc1ccccc1)NC(=O)[C@@H](NC(=O)CNC(=O)[C@H](CCC(N)=O)NC(=O)C(C)(C)NC(=O)[C@@H](N)Cc1c[nH]cn1)[C@@H](C)O)[C@@H](C)O)C(=O)N[C@@H](CCC(=O)O)C(=O)N[C@@H](Cc1ccccc1)C(=O)N[C@H](C(=O)N[C@@H](CCC(=O)O)C(=O)N[C@@H](Cc1c[nH]c2ccccc12)C(=O)N[C@@H](CC(C)C)C(=O)N[C@@H](CC(C)C)C(=O)N[C@@H](CCC(=O)O)C(=O)N[C@@H](C)C(=O)NCC(=O)NCC(=O)N1CCC[C@H]1C(=O)N[C@@H](CO)C(=O)N[C@@H](CO)C(=O)NCC(N)=O)C(C)C)C(=O)O)C(=O)O` [Compound 26] (HELM PEPTIDE1{H.[Aib].Q.G.T.F.T.S.D.Y.S.K.Y.L.E.E.K.R.A.K.E.F.V.E.W.L.L.E.A.G.G.P.S.S.G.[am]}|PEPTIDE2{[CCCCCCCCCCCCCCCC(=O)[*:2]].[gGlu].[gGlu]}$PEPTIDE1,PEPTIDE2,20:R3-3:R2$$$V2.0; N-terminus assumed), the EC50 (GC receptor) is reported as 0.197 nM, the “Solubility, pH 7.5, 20 mM phosphate buffer” value (physchem; pH 7.5) is reported as “Insoluble” and the solubility (physchem; [3]) is reported as 80 µg/mL (≈ 18.1 µM). For the same compound, the solubility (physchem; [5]) was 200 µg/mL (≈ 45.2 µM) and the solubility (physchem; [6]) was 100 µg/mL (≈ 22.6 µM).

`CCCCCCCCCCCCCCCC(=O)N[C@@H](CCC(=O)N[C@@H](CCC(=O)NCCCC[C@H](NC(=O)[C@H](CC(=O)O)NC(=O)[C@H](CO)NC(=O)[C@@H](NC(=O)[C@H](Cc1ccccc1)NC(=O)[C@@H](NC(=O)CNC(=O)[C@H](CCC(N)=O)NC(=O)C(C)(C)NC(=O)[C@@H](N)Cc1c[nH]cn1)[C@@H](C)O)[C@@H](C)O)C(=O)N[C@@H](CO)C(=O)N[C@@H](CCCCN)C(=O)N[C@@H](Cc1ccc(O)cc1)C(=O)N[C@@H](CC(C)C)C(=O)N[C@@H](CCC(=O)O)C(=O)N[C@@H](CCC(=O)O)C(=O)N[C@@H](CCCNC(=N)N)C(=O)N[C@@H](C)C(=O)N[C@@H](C)C(=O)N[C@@H](CCCCN)C(=O)N[C@@H](CCC(=O)O)C(=O)N[C@@H](Cc1ccccc1)C(=O)N[C@H](C(=O)N[C@@H](C)C(=O)N[C@@H](Cc1c[nH]c2ccccc12)C(=O)N[C@@H](CC(C)C)C(=O)N[C@@H](CC(C)C)C(=O)N[C@@H](CCC(=O)O)C(=O)NCC(=O)NCC(=O)N1CCC[C@H]1C(=O)N[C@@H](CO)C(=O)N[C@@H](CO)C(=O)NCC(N)=O)[C@@H](C)CC)C(=O)O)C(=O)O` [Compound 16] (HELM PEPTIDE1{H.[Aib].Q.G.T.F.T.S.D.K.S.K.Y.L.E.E.R.A.A.K.E.F.I.A.W.L.L.E.G.G.P.S.S.G.[am]}|PEPTIDE2{[CCCCCCCCCCCCCCCC(=O)[*:2]].[gGlu].[gGlu]}$PEPTIDE1,PEPTIDE2,10:R3-3:R2$$$V2.0; N-terminus assumed) gave an EC50 (GC receptor) of 0.092 nM, a solubility (physchem; [3]) of 140 µg/mL (≈ 33.2 µM) and a solubility (physchem; [4]) of 50 µg/mL (≈ 11.8 µM). The solubility (physchem; [5]) was 160 µg/mL (≈ 37.9 µM) and the solubility (physchem; [6]) was 200 µg/mL (≈ 47.4 µM).
